Measurements as given in ChEMBL document CHEMBL5729558, “Morpholinylpyridone compounds” (2023).

Target: Phosphatidylinositol 3-kinase catalytic subunit type 3 (Homo sapiens, UniProt Q8NEB9)
Assay: Vps34 Biochemical Assay: Dilution series of compounds of the invention were prepared in DMSO at 100 times the final assay concentration (n1=n0/3 in 10 points). The compounds were further diluted to 4 times the assay concentration in assay buffer (Life technologies buffer Q, PV5125, diluted 5 times supplemented with 2 mM DTT and 2 mM MnCl2). 2.5 μl of the diluted compounds were added to a 384 well assay plate followed by 2.5 μl of 16.5 nM Vps34 enzyme (Life technologies, PV5126). Enzyme and compounds were pre-incubated at rt for 15 min. Then 5 μl of substrate mix containing 20 μM ATP (Life technologies, PV3227) and 200 μM PI:PS substrate (Life technologies, PV5122) in assay buffer was added to the wells containing compound and enzyme. Mixing was performed by pipetting several times. The reaction was incubated at room temperature for 1 h. Then 5 μl stop-detection mix, prepared as described in the Adapta kinase assay kit instructions (Life technologies, PV5099) containing Adapta Eu-anti-ADP antibody (2.3 nM), Alexa Fluor 647 ADP tracer (9 nM) and EDTA (30 mM) in TR-FRET buffer, was added to quench the reaction. Mixing was performed by pipetting several times. The assay plate was then incubated at room temperature for 30 min and read with Artemis micro plate reader. Percent inhibition of the compounds as compared to DMSO treated control samples was calculated. By the use of Dotmatics software compound concentration versus percent inhibition was fitted to generate IC50 values.

Phosphatidylinositol 3-kinase catalytic subunit type 3, sequence (Q8NEB9 whole entry): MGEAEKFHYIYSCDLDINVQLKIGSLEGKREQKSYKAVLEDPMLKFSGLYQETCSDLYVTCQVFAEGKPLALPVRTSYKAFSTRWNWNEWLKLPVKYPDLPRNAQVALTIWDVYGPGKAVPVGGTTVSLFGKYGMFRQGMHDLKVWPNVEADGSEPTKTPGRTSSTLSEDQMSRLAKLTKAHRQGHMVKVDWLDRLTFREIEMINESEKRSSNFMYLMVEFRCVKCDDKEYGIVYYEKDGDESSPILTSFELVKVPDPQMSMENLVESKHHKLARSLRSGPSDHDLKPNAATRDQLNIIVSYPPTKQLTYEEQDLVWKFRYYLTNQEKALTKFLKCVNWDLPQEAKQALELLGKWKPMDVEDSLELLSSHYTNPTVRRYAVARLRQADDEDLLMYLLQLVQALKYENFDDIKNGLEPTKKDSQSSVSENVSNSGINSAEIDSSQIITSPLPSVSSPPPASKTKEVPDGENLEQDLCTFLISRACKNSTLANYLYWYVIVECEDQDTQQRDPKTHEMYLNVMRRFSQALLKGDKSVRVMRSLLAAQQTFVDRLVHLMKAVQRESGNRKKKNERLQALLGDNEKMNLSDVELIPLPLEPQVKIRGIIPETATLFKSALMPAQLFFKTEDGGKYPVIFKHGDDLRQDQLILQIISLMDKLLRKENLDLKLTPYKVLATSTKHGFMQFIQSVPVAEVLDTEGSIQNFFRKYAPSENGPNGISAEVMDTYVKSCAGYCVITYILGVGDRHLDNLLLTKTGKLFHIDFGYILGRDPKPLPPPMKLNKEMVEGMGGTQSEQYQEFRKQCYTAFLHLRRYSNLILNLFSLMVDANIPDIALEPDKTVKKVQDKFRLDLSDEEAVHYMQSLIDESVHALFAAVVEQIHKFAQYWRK

| IC50 [nM] | SMILES |
| --- | --- |
| < 5 | C[C@@H]1COCCN1c1cc(N2CCN(S(=O)(=O)C3CC3)CC2C(F)(F)F)[nH]c(=O)c1 (stereo partly drawn) |
| < 5 | C[C@@H]1COCCN1c1cc(N2CCN(S(=O)(=O)c3ccnn3C)CC2C(F)(F)F)[nH]c(=O)c1 (stereo partly drawn) |
| < 5 | C[C@@H]1COCCN1c1cc(N2CCN(S(=O)(=O)N3CCOCC3)CC2C(F)(F)F)[nH]c(=O)c1 (stereo partly drawn) |
